For assay [1], the target named is T1, chimeric REV1 CTD protein (Mus musculus, UniProt Q920Q2).
T1 construct: the mouse REV1 CTD (F1150-T1249); His10-GB1 (TEV site) (N, cleaved yes); made in house; host or cells: E. coli BL21 Star (DE3)
T1 sequence (Q920Q2 1150-1249): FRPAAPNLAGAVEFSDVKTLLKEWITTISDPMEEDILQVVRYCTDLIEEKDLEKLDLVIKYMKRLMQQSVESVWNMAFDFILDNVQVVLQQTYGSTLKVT
The assay can be described thus: Isothermal titration calorimetry. The assay is classed as binding. To be noted: 25° C. How it is done:
Isothermal titration calorimetry measurements were carried out using a MicroCal VP-ITC instrument at 25° C., with the chimeric REV1 CTD protein (300 μM) in the syringe and compound (15 μM) in the cell. Compounds were initially dissolved in 50% MPD. Protein and compound samples were diluted in a buffer containing 50 mM HEPES pH 7.5, 50 mM KCl, 2 mM TCEP, 2% DMSO and 0.1% MPD. Microcal Origin 7 software was used to analyze the data.
(ITC needs no label: the signal is the heat of the interaction.)

The test system of assay [2] is REV1 CTD-REV7 interaction. The assay can be described thus: ELISA assay probing the REV1 CTD-REV7 interaction. The assay is classed as binding, mouse. The note with it: ratio of test compound IC50 to RE01 IC50. How it is done:
The ELISA assay for probing the REV1 CTD-REV7 interaction was carried out by immobilizing 50 nM His8-tagged REV7/3 in 200 μL phosphate-buffered saline (PBS, Gibco) containing 0.2% BSA in a Ni-NTA coated 96-well plate (HisSorb, Qiagen) for 30 minutes. Unbound His8-tagged REV7/3 was removed by washing the wells four times with PBS containing 0.05% Tween-20. […] After incubation for 30 minutes, the wells were washed four times with PBS containing 0.05% Tween-20 to remove the unbound FLAG-tagged POL κ RIR-REV1 CTD. A solution of the anti-FLAG horseradish peroxidase (HRP)-conjugated antibody (Sigma-Aldrich) in PBS containing 0.2% BSA was then added to the wells. After incubating for 1 hour, the antibody was washed off four times with PBS containing 0.05% Tween-20. The 3,3′,5,5′-tetramethylbenzedine (TMB) substrate (SureBlue TMB, Seracare) was added to the wells. After incubation of 20-30 minutes, the reaction was quenched with 1 M HCl. A SpectraMax plate reader (Molecular Devices) was used to measure absorbance at 450 nm.
(In general: In an ELISA, binding on a coated surface is turned into a signal by an enzyme label.)

A further assay deals with A375 cells. The assay can be described thus: qRT-PCR of p21 mRNA. The assay is classed as cell-based, human. To be noted: cisplatin 1 μM alone. How it is done:
Total RNA was isolated by using the RNeasy Mini kit (Qiagen) from cells treated with RE01 (1.5 μM), cisplatin (1 μM) and a combination of both RE01 (1.5 μM) and cisplatin (1 μM). 5 ng of RNA from each sample was mixed with 10 μl of Applied Biosystems™ PowerUp™ SYBR™ Green Master Mix (ThermoFisher), 1 μl of MultiScribe™ Reverse Transcriptase (ThermoFisher), 0.1 μl of RNaseOUT™ Recombinant Ribonuclease Inhibitor and 5.9 μl of RNase-free water, and run in a one-step qRT-PCR reaction. Each reaction was run in triplicate. Primers used were: p21 F 5′-[…]-3′ (SEQ ID NO: 9), p21 R 5-CGGCGTTTGGAGTGG TAGAAA-3′ (SEQ ID NO: 10); GAPDH F 5′-[…]-3′ (SEQ ID NO: 11), GAPDH R 5′-[…]-3′ (SEQ ID NO: 12).
(In general: Quantitative PCR measures a nucleic acid by following its amplification.)

These results are taken from US11801242B2, “Compositions and methods for adjuvant cancer therapeutics” (DUKE UNIVERSITY, priority 2018, dated 2023).

On to `CC(C)CC(=O)c1c(N2CCOCC2)[nH]c2c(Cl)ccc([N+](=O)[O-])c2c1=O` [RE07, 8-chloro-3-(3-methylbutanoyl)-2-morpholino-5-nitroquinolin-4(1H)-one], for which the “REV1 CTD binding” value in assay [1] is recorded as “abolished the REV1 CTD binding”.

Regarding `Cc1ccc([N+](=O)[O-])c2c(=O)c(C(=O)CC(C)C)c(Nc3ccc(Cl)cc3Cl)[nH]c12` [RE36, 2-((2,4-dichlorophenyl)amino)-8-methyl-3-(3-methylbutanoyl)-5-nitroquinolin-4(1H)-one], the “Relative IC50 Ratio” value in assay [2] is reported as “C (C represents a ratio of test compound IC50 to RE01 IC50 between 1.5-10)”. In the case of `CC(C)CC(=O)c1c(Nc2ccc(Cl)cc2Cl)[nH]c2cc([N+](=O)[O-])ccc2c1=O` [RE35, 2-((2,4-dichlorophenyl)amino)-3-(3-methylbutanoyl)-7-nitroquinolin-4(1H)-one], the “Relative IC50 Ratio” value in assay [2] is “A (A represents a ratio of test compound IC50 to RE01 IC50 of less than 0.8)”.

For `CC(C)CC(=O)c1c(Nc2ccc(Cl)cc2Cl)[nH]c2c(Cl)ccc(C(=O)O)c2c1=O` [RE09, 8-chloro-2-((2,4-dichlorophenyl)amino)-3-(3-methylbutanoyl)-4-oxo-1,4-dihydroquinoline-5-carboxylic acid], in assay [2], the “Relative IC50 Ratio” value is “B (B represents a ratio of test compound IC50 so to RE1 IC50 between 0.8 and 1.5)”.

As to `CC(C)CC(=O)c1c(Nc2ccc(Cl)cc2Cl)[nH]c2c(C(=O)O)ccc([N+](=O)[O-])c2c1=O` [RE10, 2-((2,4-dichlorophenyl)amino)-3-(3-methylbutanoyl)-5-nitro-4-oxo-1,4-dihydroquinoline-8-carboxylic acid], the “Relative IC50 Ratio” value in assay [2] was “B (B represents a ratio of test compound IC50 so to RE1 IC50 between 0.8 and 1.5)”.

Take `CC(C)CC(=O)c1c(Nc2ccc(Cl)cc2Cl)[nH]c2ccccc2c1=O` [RE28, 2-((2,4-dichlorophenyl)amino)-3-(3-methylbutanoyl)quinolin-4(1H)-one]: the “Relative IC50 Ratio” value in assay [2] is “A (A represents a ratio of test compound IC50 to RE01 IC50 of less than 0.8)”. As to `CC(C)CC(=O)c1c(Nc2ccc(Cl)cc2Cl)[nH]c2c(C(=O)O)ccc(Cl)c2c1=O` [RE08, 5-chloro-2-((2,4-dichlorophenyl)amino)-3-(3-methylbutanoyl)-4-oxo-1,4-dihydroquinoline-8-carboxylic acid], the “Relative IC50 Ratio” value in assay [2] was “B (B represents a ratio of test compound IC50 so to RE1 IC50 between 0.8 and 1.5)”. Take `N.N.[Cl][Pt][Cl]` [cisplatin, cis-diammineplatinum(II) dichloride, reference compound]: the “levels of the p21 biomarker” value with A375 cells is “elevated levels”.
